Read-outs that look alike come from different tables or passages of the source.

The source of these data is US11503826B2, “Low volatility auxin herbicide formulations” (priority 2009, dated 2022).

The conditions of data set [1]: 5% a.e. DMA Dicamba solution.
For data set [2] the following is noted: 20° C.; 'is believed to have'; cited from earlier work.

In the case of `CNC.COc1c(Cl)ccc(Cl)c1C(=O)O` [Dicamba DMA salt], in data set [1] (starting solution pH 3.60), the “pH Solution After Distillation” value was determined as 3.58 and the “ppm DMA in Distillate” value is on record as “Undetectable”. In addition, in data set [1] (starting solution pH 8.20), the “pH Solution After Distillation” value is listed as 7.04 and the “ppm DMA in Distillate” value came to 400 ppm. In data set [1] (starting solution pH 10.10), the “pH Solution After Distillation” value is listed as 6.4 and the “ppm DMA in Distillate” value is on record as 5000 ppm. Further, the “amine in the distillate by HPLC analysis” value in data set [1] (acidic pH (3.6)) is “no detectable amine”. For the same compound, in data set [2], the “solubility g a.e./L” value is recorded as roughly 600 g a.e./L and the “solubility wt % a.e.” value is on record as “about 45 wt % a.e”.
